This note sets out measurements from patent US12503438B2, “Compounds for the treatment of kinase-dependent disorders” (Exelixis, Inc., priority 2019, dated 2025).

One test addresses T1, Human Mer (Homo sapiens, UniProt Q12866).
T1 construct: Human Mer (residues R557-E882 with H628Q and R794A, 0.7 nM); purchased Eurofins Pharma Discovery Services UK Limited (KinaseProfiler service)
T1 sequence (Q12866 557-882 limits assumed): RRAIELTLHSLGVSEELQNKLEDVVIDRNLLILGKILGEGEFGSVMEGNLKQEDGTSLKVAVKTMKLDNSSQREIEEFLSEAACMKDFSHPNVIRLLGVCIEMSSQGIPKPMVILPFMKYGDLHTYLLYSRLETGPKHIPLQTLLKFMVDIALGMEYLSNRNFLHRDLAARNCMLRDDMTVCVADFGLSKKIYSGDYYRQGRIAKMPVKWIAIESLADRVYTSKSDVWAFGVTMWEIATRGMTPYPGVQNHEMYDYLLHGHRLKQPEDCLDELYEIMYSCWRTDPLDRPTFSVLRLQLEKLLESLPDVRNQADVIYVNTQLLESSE
Kind of test: Human Mer kinase assay (33P-phosphoryl transfer radiometric, KinaseProfiler). The following applies: biochemical activity; 10 μM ATP. Here is the method: Kinase activity and compound inhibition were investigated using the ^33P-Phosphoryl transfer radiometric kinase assay, performed using the KinaseProfiler™ service of Eurofins Pharma Discovery Services UK Limited. Dose-response experiments were performed using nine compound concentrations in a 96-well microtiter plate. For each assay, all compounds were prepared to a 50× final assay concentration (50 μM) in 100% DMSO, then diluted in a half-log series, with the final top concentration at 1 μM. This working stock of the compound was added to the assay well as the first component in the reaction, followed by the remaining components as detailed in the following assay protocols below. The positive control wells (100% kinase activity) contain all components of the reaction including 2% DMSO (control for solvent effects), except the compound of interest. Blank wells contain all components of the reaction, with the reference inhibitor, staurosporine. This reference compound was used to abolish kinase activity and generated the 0% kinase activity base-line. IC50 values were calculated by nonlinear regression analysis using the sigmoidal dose-response (variable slope) curve fit on XLFit version 5.3 (ID Business Solutions).
Human Mer (residues R557-E882 with H628Q and R794A, 0.7 nM) was incubated with 8 mM MOPS pH 7.0, 0.2 mM EDTA, 30 mM NaCl, 250 μM GGMEDIYFEFMGGKKK, 10 mM magnesium acetate and 10 μM [y-^33P-ATP]. The reaction was initiated by the addition of the Mg/ATP mix. After incubation for 40 minutes at room temperature, the reaction was stopped by the addition of phosphoric acid to a concentration of 0.5%. A reaction aliquot of 10 μL was then spotted onto a P30 filtermat and washed four times for 4 minutes in 0.425% phosphoric acid and once in methanol prior to drying and scintillation counting. Incorporated ^33P was measured using the Wallac Microbeta scintillation counter (Perkin Elmer).

The target of a further test is KDR (Homo sapiens, UniProt P35968). Kind of test: KDR autophosphorylation ELISA in HUVEC cells. The following applies: cellular activity, VEGF165-stimulated, phospho-KDR ELISA. It is filed as cell-based. The arrangement: endogenous in cells; host or cells: HUVEC (Lonza #C2519A). The method in brief:
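HUVEC, 24 h serum-free starvation; cpd 8-pt dilution, 0.3% DMSO final, 1 h; VEGF165 100 ng/mL, 5 min; cold lysis; phospho-KDR ELISA; IC50, 4PL.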
For orientation: In an ELISA, binding on a coated surface is turned into a signal by an enzyme label.

The target in another test is Met (Homo sapiens, UniProt P08581). The test can be described thus: Met autophosphorylation ELISA in PC-3 cells. It counts as cell-based. The arrangement: endogenous in cells; host or cells: PC-3 prostate cancer cells (ATCC #CRL-1435). Conditions: cellular activity, HGF-stimulated, phospho-Met ELISA, read-out: c-Met IC50. An outline of the steps:
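PC-3 cells serum-starved 3 h, treated 1 h with 8-point compound series (0.3% DMSO), then stimulated with 100 ng/mL human HGF for 10 min. Lysate phospho-Met (panTyr) measured by sandwich ELISA; IC50 from 4-parameter logistic fit against DMSO and reference-inhibitor controls.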

A word on the IC50: it is the concentration needed to halve the response being measured.

Chain of Met (P08581 25-1390): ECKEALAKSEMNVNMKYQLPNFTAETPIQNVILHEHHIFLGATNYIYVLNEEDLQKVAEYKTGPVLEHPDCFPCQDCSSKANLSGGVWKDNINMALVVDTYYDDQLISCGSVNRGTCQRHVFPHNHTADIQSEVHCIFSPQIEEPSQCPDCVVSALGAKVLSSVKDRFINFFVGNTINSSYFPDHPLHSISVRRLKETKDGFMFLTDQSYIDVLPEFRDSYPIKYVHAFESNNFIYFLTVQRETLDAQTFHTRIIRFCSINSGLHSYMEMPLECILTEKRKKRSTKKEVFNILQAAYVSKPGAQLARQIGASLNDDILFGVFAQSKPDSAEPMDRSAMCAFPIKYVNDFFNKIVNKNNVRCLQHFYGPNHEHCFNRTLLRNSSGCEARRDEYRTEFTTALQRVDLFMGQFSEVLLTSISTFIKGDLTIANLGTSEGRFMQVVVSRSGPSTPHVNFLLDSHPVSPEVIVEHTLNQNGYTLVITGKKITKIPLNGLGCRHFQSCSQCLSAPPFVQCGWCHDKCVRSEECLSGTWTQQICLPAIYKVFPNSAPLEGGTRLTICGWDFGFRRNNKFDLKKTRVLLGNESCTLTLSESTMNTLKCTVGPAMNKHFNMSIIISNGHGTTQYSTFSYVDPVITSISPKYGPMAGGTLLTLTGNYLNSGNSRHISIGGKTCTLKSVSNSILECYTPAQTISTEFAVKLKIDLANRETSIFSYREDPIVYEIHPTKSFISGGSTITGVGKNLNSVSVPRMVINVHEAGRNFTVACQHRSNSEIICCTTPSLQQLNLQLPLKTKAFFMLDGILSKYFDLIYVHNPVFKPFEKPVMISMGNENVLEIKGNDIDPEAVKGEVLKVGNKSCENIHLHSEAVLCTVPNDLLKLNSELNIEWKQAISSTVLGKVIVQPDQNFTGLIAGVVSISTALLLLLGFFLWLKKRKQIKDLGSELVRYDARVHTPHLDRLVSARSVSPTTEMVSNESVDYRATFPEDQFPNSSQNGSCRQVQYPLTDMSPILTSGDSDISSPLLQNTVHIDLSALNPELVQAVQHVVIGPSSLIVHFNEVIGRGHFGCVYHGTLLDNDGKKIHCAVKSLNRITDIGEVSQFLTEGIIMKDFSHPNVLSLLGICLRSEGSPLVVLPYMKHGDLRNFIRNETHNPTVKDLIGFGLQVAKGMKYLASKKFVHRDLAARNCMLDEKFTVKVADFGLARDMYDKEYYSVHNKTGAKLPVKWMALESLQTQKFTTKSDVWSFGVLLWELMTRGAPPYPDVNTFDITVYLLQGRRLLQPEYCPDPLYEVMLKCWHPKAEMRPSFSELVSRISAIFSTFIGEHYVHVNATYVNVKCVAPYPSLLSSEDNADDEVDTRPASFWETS
Chain of KDR (P35968 20-1356): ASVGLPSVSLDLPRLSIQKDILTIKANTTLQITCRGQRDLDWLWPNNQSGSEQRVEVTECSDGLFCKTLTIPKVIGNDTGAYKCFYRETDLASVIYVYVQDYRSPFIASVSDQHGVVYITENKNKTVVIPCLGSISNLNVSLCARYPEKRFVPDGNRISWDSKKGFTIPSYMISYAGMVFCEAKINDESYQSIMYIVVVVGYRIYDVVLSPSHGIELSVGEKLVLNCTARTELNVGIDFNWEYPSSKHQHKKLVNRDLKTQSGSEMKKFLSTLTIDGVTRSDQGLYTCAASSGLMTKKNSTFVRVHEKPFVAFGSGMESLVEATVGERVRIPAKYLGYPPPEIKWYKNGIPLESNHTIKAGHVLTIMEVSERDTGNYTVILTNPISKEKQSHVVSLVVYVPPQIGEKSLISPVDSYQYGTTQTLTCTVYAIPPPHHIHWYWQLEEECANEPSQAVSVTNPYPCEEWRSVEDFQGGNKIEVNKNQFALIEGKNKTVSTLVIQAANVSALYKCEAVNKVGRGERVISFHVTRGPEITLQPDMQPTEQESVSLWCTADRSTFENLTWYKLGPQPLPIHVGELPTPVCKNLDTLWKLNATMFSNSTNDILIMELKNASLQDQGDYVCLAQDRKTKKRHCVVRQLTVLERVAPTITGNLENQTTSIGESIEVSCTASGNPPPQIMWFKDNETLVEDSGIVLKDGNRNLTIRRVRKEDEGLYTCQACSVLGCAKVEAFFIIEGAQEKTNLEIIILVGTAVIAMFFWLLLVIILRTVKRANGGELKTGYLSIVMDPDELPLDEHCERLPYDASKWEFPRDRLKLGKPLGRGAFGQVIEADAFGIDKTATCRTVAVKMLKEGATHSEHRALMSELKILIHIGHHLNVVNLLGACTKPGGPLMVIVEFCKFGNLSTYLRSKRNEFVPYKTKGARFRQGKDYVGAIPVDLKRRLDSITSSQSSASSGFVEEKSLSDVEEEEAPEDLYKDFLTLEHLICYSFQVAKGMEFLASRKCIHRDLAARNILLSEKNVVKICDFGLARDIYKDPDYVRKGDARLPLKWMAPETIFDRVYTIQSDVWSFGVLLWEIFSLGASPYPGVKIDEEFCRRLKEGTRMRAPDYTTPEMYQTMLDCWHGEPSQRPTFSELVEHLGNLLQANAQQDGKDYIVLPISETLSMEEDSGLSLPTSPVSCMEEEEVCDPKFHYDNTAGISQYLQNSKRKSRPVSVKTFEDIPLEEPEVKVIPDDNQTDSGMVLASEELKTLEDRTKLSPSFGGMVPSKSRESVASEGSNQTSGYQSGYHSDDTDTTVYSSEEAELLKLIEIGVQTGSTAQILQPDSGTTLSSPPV

For the molecule `CCn1cc(-c2ccc3c(Oc4ccc(NC(=O)C5(C(=O)Nc6ccc(F)cc6)CC5)cc4)ccnc3c2)cn1` [Compound 20, 1-N-[4-[7-(1-Ethylpyrazol-4-yl)quinolin-4-yl]oxyphenyl]-1-N′-(4-fluorophenyl)cyclopropane-1,1-dicarboxamide], the IC50 is at most 10 nM on Human Mer, at most 10 nM against KDR and 10 to 100 nM on Met.

`Cc1cc(F)cc(C)c1NC(=O)C1(C(=O)Nc2ccc(Oc3ccnc4cc(-c5cnn(C)c5)ccc34)cc2)CC1` [Compound 82, 1-N′-(4-Fluoro-2,6-dimethylphenyl)-1-N-[4-[7-(1-methylpyrazol-4-yl)quinolin-4-yl]oxyphenyl]cyclopropane-1,1-dicarboxamide]: the IC50 at Human Mer was at most 10 nM; at KDR, above 300 nM; on Met it was 100 to 300 nM.

For `O=C(Nc1ccc(F)cc1)C1(C(=O)Nc2ccc(Oc3ccnc4cc(-c5cccnc5)ccc34)cc2)CC1` [Compound 25, 1-N′-(4-Fluorophenyl)-1-N-[4-(7-pyridin-3-ylquinolin-4-yl)oxyphenyl]cyclopropane-1,1-dicarboxamide], the IC50 against Human Mer is at most 10 nM; on KDR it was at most 10 nM; on Met, 10 to 100 nM.

For `CN(C(=O)C1(C(=O)Nc2ccc(Oc3ccnc4cc(-c5cnn(C)c5)ccc34)cc2)CC1)c1ccc(F)cc1` [Compound 82A, 1-N′-(4-Fluorophenyl)-1-N′-methyl-1-N-[4-[7-(1-methylpyrazol-4-yl)quinolin-4-yl]oxyphenyl]cyclopropane-1,1-dicarboxamide], the IC50 at Human Mer is 100 to 1000 nM; at KDR, above 300 nM; on Met, above 300 nM.

Consider `COCCn1cc(-c2ccc3c(Oc4ccc(NC(=O)C5(C(=O)Nc6ccc(F)cc6)CC5)cc4)ccnc3c2)cn1` [Compound 10, 1-N′-(4-Fluorophenyl)-1-N-[4-[7-[1-(2-methoxyethyl)pyrazol-4-yl]quinolin-4-yl]oxyphenyl]cyclopropane-1,1-dicarboxamide], for which the IC50 against Human Mer was at most 10 nM; against KDR, 10 to 100 nM; on Met, 10 to 100 nM.

Turning to `CNC(=O)c1cc2c(Oc3ccc(NC(=O)C4(C(=O)Nc5ccc(F)cc5)CC4)cc3)ccnc2cc1-c1cnn(C)c1` [Compound 77, 1-N′-(4-Fluorophenyl)-1-N-[4-[6-(methylcarbamoyl)-7-(1-methylpyrazol-4-yl)quinolin-4-yl]oxyphenyl]cyclopropane-1,1-dicarboxamide], the IC50 on Human Mer was at most 10 nM; on KDR, 10 to 100 nM; on Met it was 10 to 100 nM.

As to `CC(C)(C)n1cc(-c2ccc3c(Oc4ccc(NC(=O)C5(C(=O)Nc6ccc(F)cc6)CC5)cc4)ccnc3c2)cn1` [Compound 23, 1-N-[4-[7-(1-tert-Butylpyrazol-4-yl)quinolin-4-yl]oxyphenyl]-1-N′-(4-fluorophenyl)cyclopropane-1,1-dicarboxamide], the IC50 is at most 10 nM against Human Mer, 10 to 100 nM on KDR and 10 to 100 nM at Met.

`O=C(Nc1ccc(F)cc1)C1(C(=O)Nc2ccc(Oc3ccnc4cc(-c5ccncc5)ccc34)cc2)CC1` [Compound 26, 1-N′-(4-Fluorophenyl)-1-N-[4-(7-pyridin-4-ylquinolin-4-yl)oxyphenyl]cyclopropane-1,1-dicarboxamide]: the IC50 at Human Mer, at KDR and on Met was at most 10 nM each time.

`O=C(Nc1ccc(F)cc1)C1(C(=O)Nc2ccc(Oc3ccnc4cc(-c5ccn[nH]5)ccc34)cc2)CC1` [Compound 68, 1-N′-(4-Fluorophenyl)-1-N-[4-[7-(1H-pyrazol-5-yl)quinolin-4-yl]oxyphenyl]cyclopropane-1,1-dicarboxamide]: the 50% inhibitory concentration (IC50) against Human Mer is at most 10 nM; on KDR it was at most 10 nM; on Met it was 10 to 100 nM.

Regarding `O=C(Nc1ccc(F)cc1)C1(C(=O)Nc2ccc(Oc3ccnc4cc(-c5ncc[nH]5)ccc34)cc2)CC1` [Compound 74, 1-N′-(4-Fluorophenyl)-1-N-[4-[7-(1H-imidazol-2-yl)quinolin-4-yl]oxyphenyl]cyclopropane-1,1-dicarboxamide], the IC50 on Human Mer, against KDR and at Met was at most 10 nM throughout.

As for `O=C(Nc1ccc(F)cc1)C1(C(=O)Nc2ccc(Oc3ccnc4cc(-c5cnn(C6CC6)c5)ccc34)cc2)CC1` [Compound 22, 1-N-[4-[7-(1-Cyclopropylpyrazol-4-yl)quinolin-4-yl]oxyphenyl]-1-N′-(4-fluorophenyl)cyclopropane-1,1-dicarboxamide], the results for the IC50 at Human Mer, on KDR and at Met were at most 10 nM, 10 to 100 nM and 10 to 100 nM, respectively.

Regarding `O=C(Nc1ccc(F)cc1)C1(C(=O)Nc2ccc(Oc3ccnc4cc(-c5cncnc5)ccc34)cc2)CC1` [Compound 27, 1-N′-(4-Fluorophenyl)-1-N-[4-(7-pyrimidin-5-ylquinolin-4-yl)oxyphenyl]cyclopropane-1,1-dicarboxamide], the IC50 against Human Mer was at most 10 nM; on KDR, 10 to 100 nM; on Met it was 10 to 100 nM.

With `O=C(Nc1ccc(F)cc1)C1(C(=O)Nc2ccc(Oc3ccnc4cc(-c5cnn[nH]5)ccc34)cc2)CC1` [Compound 65, 1-N′-(4-Fluorophenyl)-1-N-[4-[7-(1H-triazol-5-yl)quinolin-4-yl]oxyphenyl]cyclopropane-1,1-dicarboxamide], the values for the IC50 against Human Mer, against KDR and at Met were 100 to 1000 nM, above 300 nM and above 300 nM, respectively.

`CN1CCC(n2cc(-c3ccc4c(Oc5ccc(NC(=O)C6(C(=O)Nc7ccc(F)cc7)CC6)cc5)ccnc4c3)cn2)CC1` [Compound 61, 1-N′-(4-Fluorophenyl)-1-N-[4-[7-[1-(1-methylpiperidin-4-yl)pyrazol-4-yl]quinolin-4-yl]oxyphenyl]cyclopropane-1,1-dicarboxamide]: the results for the IC50 at Human Mer, on KDR and on Met were at most 10 nM, 10 to 100 nM and 10 to 100 nM, respectively.

`O=C(Nc1ccc(F)cc1)C1(C(=O)Nc2ccc(Oc3ccnc4cc(-c5cnn(CCN6CCOCC6)c5)ccc34)cc2)CC1` [Compound 19, 1-N′-(4-Fluorophenyl)-1-N-[4-[7-[1-(2-morpholin-4-ylethyl)pyrazol-4-yl]quinolin-4-yl]oxyphenyl]cyclopropane-1,1-dicarboxamide]: the IC50 on Human Mer was at most 10 nM; against KDR, 10 to 100 nM; on Met, 10 to 100 nM.

On to `O=C(Nc1ccc(F)cc1)C1(C(=O)Nc2ccc(Oc3ccnc4cc(-c5ccccn5)ccc34)cc2)CC1` [Compound 85, 1-N′-(4-Fluorophenyl)-1-N-[4-(7-pyridin-2-ylquinolin-4-yl)oxyphenyl]cyclopropane-1,1-dicarboxamide], for which the IC50 against Human Mer was at most 10 nM; on KDR, 10 to 100 nM; on Met it was 10 to 100 nM.

As for `O=C(Nc1ccc(F)cc1)C1(C(=O)Nc2ccc(Oc3ccnc4cc(-c5ncco5)ccc34)cc2)CC1` [Compound 66, 1-N′-(4-Fluorophenyl)-1-N-[4-[7-(1,3-oxazol-2-yl)quinolin-4-yl]oxyphenyl]cyclopropane-1,1-dicarboxamide], the half-inhibitory concentration (IC50) is at most 10 nM at Human Mer, 10 to 100 nM on KDR and 10 to 100 nM on Met.

Consider `O=C(Nc1ccc(F)cc1)C1(C(=O)Nc2ccc(Oc3ccnc4cc(-c5cnn(CC(F)(F)F)c5)ccc34)cc2)CC1` [Compound 16, 1-N′-(4-Fluorophenyl)-1-N-[4-[7-[1-(2,2,2-trifluoroethyl)pyrazol-4-yl]quinolin-4-yl]oxyphenyl]cyclopropane-1,1-dicarboxamide], for which the figures for the IC50 against Human Mer, against KDR and on Met were at most 10 nM, at most 10 nM and 10 to 100 nM, respectively.
